Test results taken from patent US5200506A, “Process for preparing new thymopentin retro-inverso analogs and fragments thereof and the intermediates obtained therein” (Eniricerche S.p.A., priority 1987, dated 1993).
Values belong to the compound of their own block, whether it stands above or below them. Where a SMILES comes first, the peptide text is derived from it.

How the values were obtained:
[1] = tested on: spleen cells of mice incubated with SRBC; assay: Plaque forming cells test; assay type: in vivo
Protocol: As the in vivo test, the so-called "plaque forming cells" test described by N. Jerne (same reference as above), has been used. The test is carried out incubating spleen cells of mice who had received the test peptides, with SRBC and counting the number of plaques formed. In the actual practice, groups of 3 mice each, received about 1 ng/mouse of test peptide i.p. one hour after the antigen (SRBC) inoculation. Four days after this treatment, the spleen cells are removed and the test is immediately carried out.
The "plaque forming cells" test has been repeated also by treating the test mice with TP5 or with the corresponding retro-inverso analog TP5-RI1-2, three days before antigen (SRBC) injection.

[2] = T.P.Tischio et al. 1979; cited from earlier work
cord blood cells (CBC) = assay: Rosette E formation test with sheep red blood cells; assay type: cell-based, human; details: overnight at 37° C.; for % formation of Rosette E: 5% CO2, blank 23; for % of live cells after incubation: 5% CO2, blank 100
Description: In particular, as the in vitro test, the Rosette E formation test has been performed both on peripheral blood […] (PBMC) and on cord blood cells (CBC). The CBC used give a percentage of Rosette E formation with sheep red blood cells (SRBC) of 20-40%. The test is based on the capability of human T cells of forming Rosette E with SRBC. The assay which has been carried out according to the metodology described by O.G.Bier at al. in Fundamentals of Immunology--Springer-Verlag (1981), consists in the incubation of CBC, with or without the test peptides, overnight at 37° C. in the presence of 5% CO2.

in vitro = details: human, heparinized human plasma
Protocol: Incubations are carried out at 37° C., and aliquots (100 μl each) were collected at time intervals, blocked by treatment with 10% trifluoroacetic acid and centrifuged (10,000 rpm)
for 5'. Aliquots from the supernatant were assayed . by chromatography and the concentration of the test peptide at the different times was measured.

immune response = details: thymectomized mice, preliminary in vivo tests; L.Kisfaludy et al. 1983; cited from earlier work
[3] = mice, about 1 ng/mouse i.p. one hour after antigen (SRBC) inoculation, spleen cells four days later, blank 4.62
[4] = mice, about 1 ng/mouse i.p. one hour after antigen (SRBC) inoculation, spleen cells four days later, blank 42.000

Compound: CC(C)[C@H](NC(=O)[C@H](CC(=O)O)NC(=O)[C@H](CCCCN)NC(=O)[C@@H](N)CCCN=C(N)N)C(=O)N[C@@H](Cc1ccc(O)cc1)C(=O)O [TP5, H-Arg-Lys-Asp-Val-Tyr-OH] (H-RKDVY-OH)
Log Number of plaques ([1]; mice treated three days before antigen (SRBC) injection, blank 4.64): 4.79
Number of plaques formed ([1]; mice treated three days before antigen (SRBC) injection, blank 44.000): 62.000
Log Number of plaques [1, 3]: 4.68
Number of plaques formed [1, 4]: 48.375
half-life in serum [2]: approximately 1.5 minute
% formation of Rosette E (cord blood cells (CBC); 10 ng/ml): 28%
% of live cells after incubation (cord blood cells (CBC); 10 ng/ml): 65%
% formation of Rosette E (cord blood cells (CBC); 100 ng/ml): 33%
% of live cells after incubation (cord blood cells (CBC); 100 ng/ml): 65%

half-life (in vitro): 32 min
Compound: CC(C)[C@H](NC(=O)[C@H](CC(=O)O)NC(=O)C(CCCCN)C(=O)N[C@@H](N)CCCNC(=N)N)C(=O)N[C@@H](Cc1ccc(O)cc1)C(=O)O (stereo partly drawn) [TP5-RI1-2, AcOH·H-gArg-(R,S)mLys-Asp-Val-Tyr--OH]

Compound: N=C(N)NCCC[C@H](N)C(=O)N[C@@H](CCCCN)C(=O)N[C@@H](CC(=O)O)C(=O)O [TP5^(1-3), H-Arg-Lys-Asp-OH] (H-Arg-Lys-Asp-OH)
Log Number of plaques [1, 3]: 4.67
Number of plaques formed [1, 4]: 48.917
restoration of the immune response (immune response): able to restore the immune response in thymectomized mice

Compound: AcOH.multidot.H-gArg-(R,S)mLys-Asp--OH [TP5^(1-3) -RI1-2]
Log Number of plaques [1, 3]: 4.78
Number of plaques formed [1, 4]: 63.125
